Data taken from patent publication EP0642351B1, “NEW PHARMACEUTICAL USES OF KRILL ENZYMES” (PHAIRSON MEDICAL, INC., priority 1992, dated 1993).
Like-named read-outs stand apart in the source and are kept apart here.

Assays:
[1] = Example 39 - Cell viability (tox.) in HIV-contaminated cell lines, in vitro; type: cell-based
Protocol: (§1) This study was carried out at the Swedish National Bacterological Laboratory (SBL). Multi-Protein was compared to AZT and Foscarnet. All preparations were tested at dilutions from undiluted to 10^-5 (highest concentration for Multi-Protein was 5 mg/ml). The preparations were added to the cell linjes, HIV-I infected to 40-60%, under identical and standardized conditions.
(§2) Control: 50% infected cells. Cell toxicity and percentage of infected cells measured by immunofluorescence.
(§3) Control: 50% infected cells. Cell toxicity and percentage of infected cells measured by immanofluorescence.

[2] = test system: cell linjes, HIV-I infected to 40-60%; assay: as above; type: cell-based
Protocol: as §1, §2, §3

[3] = test system: primary and secondary liver cancer; conditions: phase II study, Japan; T. Taguchi et al; cited from earlier work
[4] = test system: Yoshida Sarcoma; conditions: cited from earlier work
[5] = test system: mice with P388 murine leukemia; assay: Toxicity on mice with s.c. implanted P388 murine leukemia, i.p. daily during 9 consecutive days; type: in vivo; conditions: 9 days
Protocol: It may be worth mentioning that the highest dose of PHIM (20 mg/kg) is far higher than any of the curing doses used in any of the clinical examples which have been reported earlier in this description.

In the case of `Cc1cn([C@H]2C[C@H](N=[N+]=[N-])[C@@H](CO)O2)c(=O)[nH]c1=O` [AZT], the viability [1] is reported as 100% and the “effect on the cells in the cultures” value [2] is reported as “all cells in the cultures were attacked and killed”.

For `COc1cccc2c1C(=O)c1c(O)c3c(c(O)c1C2=O)C[C@@](O)(C(=O)CO)C[C@@H]3O[C@H]1C[C@H](N)[C@H](O)[C@H](C)O1` [Adriamycin], the “response rate (CR and PR)” value [3] is listed as 9.5%.

For `N.N.[Cl][Pt][Cl]` [Cisplatin], the “tumour cells not killed” value ([4]; cells removed from the tumour and cultured) is listed as 53%.

With `COc1cccc2c1C(=O)c1c(O)c3c(c(O)c1C2=O)C[C@@](O)(C(=O)CO)C[C@@H]3O[C@H]1C[C@H](N)[C@H](O)[C@H](C)O1` [DOX, doxorubicin] the Toxic death ([5]; Dose 1.25 mg/kg i.p. daily) was 0/6, the Toxic death ([5]; Dose 2.5 mg/kg i.p. daily) was 6/6 and the “Body weight change” value ([5]; Dose 5 mg/kg i.p. daily) was -2.3 g. The Toxic death ([5]; Dose 5 mg/kg i.p. daily) was 6/6.

With `O=C(O)P(=O)(O)O` [Foscarnet] the viability ([1]; Trial 1, moi 0.4, Multi-Protein: deformed cells, read-out: Cell viability (tox.)) was 100% and the “effect on the cells in the cultures” value ([2]; at low dilutions) was “all cells in the cultures were attacked and killed”.

For `CO[C@@]12[C@H](COC(N)=O)C3=C(C(=O)C(C)=C(N)C3=O)N1C[C@@H]1N[C@@H]12` [Mitomycin C], the side effect profile ([4]; 0.5 mg/kg as well as lower doses) is listed as “loss of body weight, hair loss, decreased leucocytes and chronic diarrhoea”, the “effect on Yoshida Sarcoma resistant to Mitomycin C” value ([4]; 0.5 mg/kg or even higher doses) is listed as “no effects could be detected” and the “efficacy calculated as 30 days of survival of the rats” value ([4]; non-resistant Yoshida Sarcoma, doses up to 0.5 mg/kg) is listed as ~100%. The “response rate (CR and PR)” value [3] was 20%.
